Series [1] has as its system Aedes aegypti. To be noted: formulation on military fabric at LC99-based concentration, 2 h exposure, mortality 24 h after initial exposure. On the procedure:
Briefly, after mosquitoes are exposed to formulations for 2 hours at a concentration of LC99, each set is transferred into a separate glass jar, and held for another 24 hours. The mortality rate is measured with new mosquitoes on post-treatment days 2, 3, 5, 8 and 14 (Day 1 starts at 24 hours after the transfer), and is determined using the same procedures as are illustrated in Example 2.
Concentrations were generated from technical-based LC99 values obtained from a 2 h exposure period on military fabric. Fabric was treated on day 0 and was held until exposure on post-treatment day. Mosquitoes were exposed for 2 h, and mortality rate was assessed 24 h after initial exposure. Control contained formulation ingredients without semiochemicals.

Series [2] deals with Aedes aegypti. To be noted: EC formulation on military fabric. As for the experimental part:
(§1) A commercially-available permethrin 57 g L^−1 EC (Ectiban EC 57; Universal Cooperatives, Minneapolis, Minn.) was included for comparison. Except rosalva, the 50% EC semiochemical formulations were generated by combining 500 mL AI, 430 mL canola oil (Publix, Lakeland, Fla.), 10 mL xylene, 50 mL Triton X-100 (Acros Organics Nev., Fair Lawn, N.J.) and 10 mL Agsolex-8 (International Specialty Products, Wayne, N.J.). The rosalva formulation contained all of the above-mentioned ingredients, with canola oil concentration reduced to 400 mL L^−1, Triton X-100 concentration increased to 75 mL L^−1, and 5 mL L^−1 Antifoam B silicone emulsion (Mallinckrodt Baker, Phillipsburg, N.Y.) included.
Briefly, a piece of 10×10 cm^2 fabric (TenCate Defender™) is impregnated with 2 ml of serially diluted 20-emulsifiable concentrate or 50-emulsifiable concentrate formulations, respectively, and subsequently dried for about an hour. Also, six-to-ten-day-old, never blood-fed, adult female Ae. aegypti mosquitoes are obtained. The mosquitoes are divided into seven sets: three sets as the experiment, three sets as the positive control, and one set as the negative control. Each set consists of 20 mosquitoes. […] The positive control set is exposed to fabric pieces treated with geranyl acetone, rosalva or citronellol. The negative control set is exposed to fabric pieces treated with acetone solution. Throughout the exposure periods, each set is provided with 10% sucrose solution and sufficient air circulation. Ataxic mosquitoes are considered dead. The mortality rate and the LC values are determined using the same procedures as are illustrated in Example 2.

Series [3] relates to Susceptible Musca domestica. Put plainly: Contact bioassay of emulsified concentrate formulations on filter paper discs. To be noted: EC formulation on filter paper. On the procedure:
as §1
Briefly, Whatman No. 1 filter paper discs (63.58 cm^2) are impregnated with 1.5 ml serially diluted formulations in 20 emulsified concentrates and 50 emulsified concentrates, respectively, and subsequently dried for about an hour. Then, house flies are divided into seven sets: three sets as the experiment, three sets as the positive control, and one set as the negative control. Each set consists of twenty six-to-ten-day old adult flies. […] The positive control set is exposed to paper discs impregnated with geranyl acetone, rosalva or citronellol. The negative control set is exposed to paper discs impregnated with acetone solution. Throughout the exposure periods, each set is provided with 10% sucrose solution and sufficient air circulation. Ataxic flies are considered dead. The mortality rate and the LC values are determined using the same procedures as is illustrated in Example 2.

The subject of series [4] is Aedes aegypti. To be noted: formulation on plywood panels at 1.67 mg cm^−2, 2 h exposure, mortality 24 h after initial exposure. On the procedure:
Briefly, after mosquitoes are assayed on unpainted plywood panel boards with formulation at a concentration of 1.67 mg cm^−2 for 2 hours, they are transferred into a separate glass jar, and held for another 24 hours. The mortality rate is measured daily for a continuous 4 days (Day 1 starts at 24 hours after the transfer), as is determined using the same procedures as are illustrated in Example 2.
Plywood panels (225 cm^2) were treated with chemicals at a rate of 1.67 mg cm^−2. Panels were treated on day 0 and was held until exposure on post-treatment day. Mosquitoes were exposed to chemicals for 2 h, and mortality rate was assessed 24 h after initial exposure. Control contained formulation ingredients without semiochemicals.

Read-outs that look alike come from different tables or passages of the source.

As for `CC(C)=CCCC(C)CCO` (stereo not shown) [Citronellol, citronellol], the “% mortality on various days following treatment” value (“% mortality” below) in the series on Aedes aegypti [1] (day 1) worked out at 95.00a %; in the series on Aedes aegypti [1] (day 2) it was 77.50a %; in the series with Aedes aegypti [1] (day 5), 35.00b %; with Aedes aegypti [1] (day 14), 2.50cd %; in the series on Aedes aegypti [4] (day 1), 94.00a %; in the series on Aedes aegypti [4] (day 2), 61.0b %. In addition, the “% mortality” value with Aedes aegypti [4] (day 3) is reported as 26.0b %; with Aedes aegypti [4] (day 4), 10.0b %. Further, the LC90 was 1938.19 μg cm^−2 in the series with Aedes aegypti [2] (exposure period 2 hours); 1434.18 μg cm^−2 with Aedes aegypti [2] (exposure period 4 hours); 700.43 μg cm^−2 in the series on Aedes aegypti [2] (exposure period 24 hours); 580.00 μg cm^−2 in series [3] (24 h constant exposure); 886.04 μg cm^−2 in series [3] (48 h constant exposure).
Turning to `CC(=O)CC/C=C(\C)CCC=C(C)C` [Geranyl acetone, geranyl acetone], the “% mortality” value in the series on Aedes aegypti [1] (day 1) is recorded as 91.25a %; in the series with Aedes aegypti [1] (day 2), 83.00a %; with Aedes aegypti [1] (day 3), 30.00c %; in the series on Aedes aegypti [1] (day 5) it was 32.50b %; in the series on Aedes aegypti [1] (day 8), 17.50c %; with Aedes aegypti [1] (day 14), 5.00c %. In addition, the “% mortality” value stood at 84.00a % with Aedes aegypti [4] (day 1), 25.0c % with Aedes aegypti [4] (day 2), 8.0c % in the series on Aedes aegypti [4] (day 3) and 5.0c % in the series with Aedes aegypti [4] (day 4). Moreover, the LC90 in the series on Aedes aegypti [2] (exposure period 2 hours) stood at 934.62 μg cm^−2; in the series with Aedes aegypti [2] (exposure period 4 hours), 742.61 μg cm^−2; with Aedes aegypti [2] (exposure period 24 hours), 338.61 μg cm^−2; in series [3] (24 h constant exposure), 1227.00 μg cm^−2; in series [3] (48 h constant exposure), 716.72 μg cm^−2.
Regarding `C=CCCCCCCCCO` [Rosalva, rosalva], the “% mortality” value is reported as 95.00a % with Aedes aegypti [1] (day 1); 87.50a % in the series on Aedes aegypti [1] (day 2); 65.00b % in the series on Aedes aegypti [1] (day 3); 35.00b % in the series with Aedes aegypti [1] (day 5); 27.50a % with Aedes aegypti [1] (day 8); 0.00d % in the series on Aedes aegypti [1] (day 14). Also, the “% mortality” value with Aedes aegypti [4] (day 1) was 58.00b %; with Aedes aegypti [4] (day 2), 34.0c %; in the series with Aedes aegypti [4] (day 3), 11.0%; with Aedes aegypti [4] (day 4) it was 3.25.c %. Further, the LC90 in the series on Aedes aegypti [2] (exposure period 2 hours) was determined as 1276.16 μg cm^−2; in the series with Aedes aegypti [2] (exposure period 4 hours), 1262.11 μg cm^−2; with Aedes aegypti [2] (exposure period 24 hours), 500.92 μg cm^−2; in series [3] (24 h constant exposure), 1054.32 μg cm^−2; in series [3] (48 h constant exposure) it was 1022.88 μg cm^−2.

The values are drawn from US8772348B2, “Materials and methods for pest control” (priority 2009, dated 2014).
